Columns and labels:
[1] = system: Phakopsora pachyrhizi (F129L); experiment: Protective control of soybean rust on soybeans (PHAKPA P2); format: in vivo; conditions: for % PHAKPA (F129L) Disease level P2 at 4 ppm: protective P2, 4 ppm; for % PHAKPA (F129L) Disease level P2 at 4 ppm / % PHAKPA (F129L) Disease level P2 at 16 ppm: F129L isolate; for % PHAKPA (F129L) Disease level P2 at 16 ppm: protective P2, 16 ppm
[2] = system: Phakopsora pachyrhizi (F129L); experiment: Protective control of soybean rust on soybeans (PHAKPA P6); format: in vivo; conditions: for % PHAKPA (F129L) Disease level P6 at 4 ppm: protective P6, 4 ppm; for % PHAKPA (F129L) Disease level P6 at 4 ppm / % PHAKPA (F129L) Disease level P6 at 16 ppm: F129L isolate; for % PHAKPA (F129L) Disease level P6 at 16 ppm: protective P6, 16 ppm

| Compound | % PHAKPA (F129L) Disease level P2 at 4 ppm [1] [%] | % PHAKPA (F129L) Disease level P2 at 16 ppm [1] [%] | % PHAKPA (F129L) Disease level P6 at 4 ppm [2] [%] | % PHAKPA (F129L) Disease level P6 at 16 ppm [2] [%] | PHAKPA (F129L) Disease level (%) P2 at 16 ppm ([1]; protective, inoculation 2 days after spraying, 16 ppm, % diseased leaf area) [%] | PHAKPA (F129L) Disease level (%) P6 at 16 ppm ([2]; protective, inoculation six days after spraying, 16 ppm, % diseased leaf area) [%] |
| --- | --- | --- | --- | --- | --- | --- |
| CNC(=O)/C(=N/OC)c1cccc(C)c1CO/N=C(\C)c1c(Cl)cc(Cl)cc1OC(F)(F)F [compound 428] | 70 | 11 | 83 | 20 | – | – |
| CO/N=C(/C(=O)OC)c1cccc(C)c1CO/N=C(\C)c1ccc(Cl)c(Cl)c1C(F)(F)F [compound 429] | 83 | 50 | 67 | 43 | – | – |
| CO/C=C(/C(=O)OC)c1cccc(C)c1CO/N=C(\C)c1ccc(Cl)c(Cl)c1C(F)(F)F [compound 430] | 22 | 6 | 37 | 17 | – | – |
| CNC(=O)/C(=N/OC)c1cccc(C)c1CO/N=C(\C)c1ccc(Cl)c(Cl)c1C(F)(F)F [compound 431] | 32 | 7 | 40 | 12 | – | – |
| CO/C=C(/C(=O)OC)c1cccc(C)c1CO/N=C(\C)c1ccc(-c2ccc(F)cc2)cc1C(F)(F)F [compound 432] | 12 | 0 | 13 | 3 | – | – |
| CO/C=C(/C(=O)OC)c1cccc(C)c1CO/N=C(\C)c1ccc(-c2ccccc2)cc1OC(F)(F)F [compound 433] | 83 | 67 | 80 | 57 | – | – |
| CNC(=O)/C(=N/OC)c1cccc(C)c1CO/N=C(\C)c1ccc(-c2ccccc2)cc1OC(F)(F)F [compound 435] | 93 | 57 | 87 | 60 | – | – |
| CO/C=C(/C(=O)OC)c1cccc(C)c1CO/N=C(\C)c1c(Cl)cc(Cl)cc1OC(F)(F)F [compound 436] | 70 | 15 | 73 | 27 | – | – |
| CO/C=C(/C(=O)OC)c1cccc(C)c1CO/N=C(\C)c1ccccc1CC(F)(F)F [compound 437] | 2 | 0 | 8 | 0 | – | – |
| CNC(=O)/C(=N/OC)c1cccc(C)c1CO/N=C(\C)c1c(Cl)ccc(F)c1OC(F)(F)F [compound 440] | 93 | 23 | 73 | 23 | – | – |
| CNC(=O)/C(=N/OC)c1cccc(C)c1CO/N=C(\C)c1c(Cl)ccc(Cl)c1OC(F)(F)F [compound 441] | 100 | 43 | 97 | 50 | – | – |
| CO/C=C(/C(=O)OC)c1cccc(C)c1CO/N=C(\C)c1c(Cl)ccc(F)c1OC(F)(F)F [compound 442] | 100 | 93 | 80 | 77 | – | – |
| CO/C=C(/C(=O)OC)c1cccc(C)c1CO/N=C(\C)c1c(Cl)ccc(Cl)c1OC(F)(F)F [compound 444] | 100 | 47 | 83 | 53 | – | – |
| CO/C=C(/C(=O)OC)c1cccc(C)c1CO/N=C(\C)c1ccc(Br)cc1C(F)(F)F [compound 445] | 15 | 1 | 30 | 2 | – | – |
| CO/C=C(/C(=O)OC)c1cccc(C)c1CO/N=C(\C)c1ccc(C)cc1C(F)(F)F [compound 446] | 2 | 0 | 6 | 0 | – | – |
| CO/N=C(/C(=O)OC)c1cccc(C)c1CO/N=C(\C)c1ccc(F)c(F)c1OC(F)(F)F [compound 447] | 7 | 0 | 33 | 1 | – | – |
| CNC(=O)/C(=N/OC)c1cccc(C)c1CO/N=C(\C)c1ccc(Cl)c(F)c1OC(F)(F)F [compound 449] | 33 | 10 | 57 | 9 | – | – |
| CO/C=C(/C(=O)OC)c1cccc(C)c1CO/N=C(\C)c1ccc(F)c(F)c1OC(F)(F)F [compound 450] | 3 | 1 | 4 | 1 | – | – |
| CNC(=O)/C(=N/OC)c1cccc(C)c1CO/N=C(\C)c1ccc(F)c(F)c1OC(F)(F)F [compound 451] | 1 | 0 | 2 | 0 | – | – |
| CO/C=C(/C(=O)OC)c1cccc(C)c1CO/N=C(\C)c1ccc(Cl)c(F)c1OC(F)(F)F [compound 452] | 60 | 6 | 70 | 14 | – | – |
| CNC(=O)/C(=N/OC)c1cccc(C)c1CO/N=C(/c1ccccc1)C(F)(F)F [compound 458] | 93 | 57 | 83 | 50 | – | – |
| CNC(=O)/C(=N/OC)c1cccc(OC)c1CO/N=C(\C)c1cccc(C(F)(F)F)c1 [compound 461] | 26 | 2 | 52 | 6 | – | – |
| CO/C=C(/C(=O)OC)c1cccc(C)c1CO/N=C(\C)c1ccccc1OC(F)(F)F [compound 462] | 37 | 6 | 55 | 10 | – | – |
| CO/C=C(/C(=O)OC)c1cccc(C)c1CO/N=C(\C)c1ccc(OC(F)(F)F)cc1Cl [compound 463] | 6 | 0 | 3 | 0 | – | – |
| CO/C=C(/C(=O)OC)c1cccc(C)c1CO/N=C(\C)c1ccc(OC)cc1C(F)(F)F [compound 464] | 1 | 0 | 8 | 0 | – | – |
| CNC(=O)/C(=N/OC)c1ccccc1CO/N=C(\C)c1cc(F)ccc1F [reference compound] | – | – | – | – | 1 | 22 |

Source: patent US20230172206A1 (BASF SE, priority 2020, published 2023)
